The nature of this data set: Determination of the distribution coefficients between polar and non-polar phases. Format: physicochemical. The settings on record: for Distribution coefficient k: 25° C.; for phase in which the isomer accumulates: seen from the distribution coefficients of Table 1. The source says:
To achieve separation of the cis- and trans-isomers of the alkenediols I which is as complete, efficient and economical as possible, it is necessary, when selecting the solvents for the polar and non-polar phases, to ensure that the quotient of the distribution coefficients ktrans /kcis of the trans- and cis-isomers between the polar and non-polar phases is as large as possible. The distribution coefficient k of the cis- or trans-isomer is defined as the concentration of isomer in the polar phase divided by the concentration of the same isomer in the non-polar phase in the equilibrium state, as illustrated by the following equations (1) and (2): [formula]
2 g of cis- or trans-alkenediol were dissolved, at 25° C., in a mixture of 40 ml of a polar solvent and 40 ml of a non-polar solvent. The mixture was vigorously shaken in a separating funnel for 10 minutes. Following separation of the phases, the solvents were removed by distillation under reduced pressure. The residues were weighed, and the results were used to calculate the distribution coefficients as defined in equations (1) and (2) above (see Table 1 below).

Where [1] appears, read: polar phase water + 2% methanol, non-polar phase toluene.
Where [2] appears, read: polar phase water + 10% ethanol, non-polar phase toluene.
The mark [3] stands for this setting: polar phase water, non-polar phase cyclohexane.
Setting [4] is: polar phase water, non-polar phase methyl cyclohexane.
The mark [5] stands for this setting: polar phase water, non-polar phase methyl isobutylketone.
[6] abbreviates: polar phase water, non-polar phase methylene chloride.
The mark [7] stands for this setting: polar phase water, non-polar phase n-hexane.
Where [8] appears, read: polar phase water, non-polar phase toluene.

For the compound `CC(C)(O)/C=C\C(C)(C)O` [cis, cis-2,5-dimethyl-3-hexene-2,5-diol], the “phase in which the isomer accumulates” value is on record as “accumulates in the non-polar phase”. Moreover, under setting [1], the Distribution coefficient k stood at 0.39. Also, the Distribution coefficient k under setting [2] amounted to 0.35. Under setting [3], this compound registered a Distribution coefficient k of 0.56. The same compound showed a Distribution coefficient k under setting [4] of 0.61. In addition, the Distribution coefficient k under setting [5] is reported as 0.09. The compound further yielded a Distribution coefficient k under setting [6] of 0.17. The Distribution coefficient k under setting [7] is recorded as 0.76. For the same compound, the Distribution coefficient k under setting [8] was 0.38.

On to `CC(C)(O)/C=C/C(C)(C)O` [trans, trans-2,5-dimethyl-3-hexene-2,5-diol], for which the “phase in which the isomer accumulates” value is “accumulates in the polar phase”. Moreover, the Distribution coefficient k under setting [1] was 62. In addition, the Distribution coefficient k under setting [2] is on record as 23. The same compound gave a Distribution coefficient k under setting [3] of 30. Also, under setting [4], the Distribution coefficient k was found to be 52. Also, the Distribution coefficient k under setting [5] was 3.0. The compound further showed a Distribution coefficient k under setting [6] of 7.3. Under setting [7], this compound gave a Distribution coefficient k of 34. Further, the Distribution coefficient k under setting [8] stood at 25.
